Measurements from patent US11180468B2, “Prodrugs of urolithins and uses thereof” (Amazentis SA, priority 2013, dated 2021).
Counter-ions that a name gives are not always drawn. Like-named read-outs stand apart in the source and are kept apart here. One block for each compound: values may come before it.

Columns and labels:
[1] = Stability (degradation) in aqueous phosphate buffer solution at room temperature, HPLC percentage remaining; format: physicochemical
Experimental: (§1) All HPLC analyses were carried out on a 5 μL sample on an Agilent 1100 series HPLC system including HPLC pump, auto injector, column oven and PDA detector with a Waters XBridgeC18, 50×2.1 mm, 5 μm column at a temperature of 40° C. and a flow rate of 0.4 mL/min using the following gradient: […]
The stability of the compounds in aqueous solution at room temperature was measured by dissolving the compounds in phosphate buffer of a pH chosen from 2, 3, 4, and/or 5. The compounds with low water solubility were first dissolved in DMSO and then diluted with phosphate buffer to contain 10% of DMSO. The samples were analysed by HPLC, as described above, at time 0 and several times thereafter. The peak area of the samples at these times were compared to the areas at t=0 to calculate the percentage remaining of the starting compound.
The solutions were prepared for each of the compounds as set out in Table 8. Plots of the percentage remaining of starting substance over time for each of the compounds measured are given in FIGS. 1-6, and t50 values (time taken for 50% of the starting compound to degrade) are given in Table 8.

[2] = Solubility in phosphate buffer at pH 4 at room temperature, filtered solution analysed by HPLC against DMSO standard; format: physicochemical; details: phosphate buffer pH 4, room temperature; for solubility: aqueous buffer, thermodynamic from solid
Experimental: as §1
A maximum amount of each compound was dissolved in 400 μL of phosphate buffer at pH 4 at room temperature in a filter vial (Agilent 0.45 μm PP Mini-UniPrep™). The filtered solutions were analysed by HPLC as described above. The peak area of the substance dissolved in buffer was compared to that of a standard prepared in DMSO.

[3] = Oral bioavailability: plasma concentration of Urolithin after oral administration to rats; format: in vivo, Sprague-Dawley rats; details: rat
Experimental: The oral bioavailability of compounds of the invention can be assessed by orally administering a dose of compound in solution to Sprague-Dawley rats. Blood samples are collected from each rat before administration, and at intervals up to 24 hours thereafter. The blood samples are analysed for the plasma concentration of Urolithin. […] The Urolithin A was still present in the blood at a concentration of 2.6 mg/ml at 12 hours following administration in the case of the saline solution, and 1.30 mg/ml in the case of the DMSO/water solution. The Cmax and AUC of Urolithin A were higher when the compound of Example 4 was orally administered than when Urolithin A was orally administered.

[4] = Urolithin A compounds, molar basis, read-out: Solubility (mM/L)
[5] = Urolithin A compounds, read-out: Solubility
[6] = Urolithin B compounds, molar basis, read-out: Solubility (mM/L)
[7] = Urolithin B compounds, read-out: Solubility

SMILES: CC(N)C(=O)Oc1ccc2c(c1)oc(=O)c1cc(OC(=O)[C@@H](C)N)ccc12 (stereo in doubt) [Example 2, 8-{[(2R)-2-Aminopropanoyl]oxy}-6-oxo-6H-benzo[c]chromen-3-yl (2S)-2-aminopropanoate dihydrochloride]
solubility [2, 4]: 4.86 mM
solubility [2, 5]: 1800 µg/mL
t50 (mins), time taken for 50% of the starting compound to degrade ([1]; pH 4, 0.33 mg in 0.66 mL (second time), FIG. 2): 31 min
t50 (mins), time taken for 50% of the starting compound to degrade ([1]; pH 4, 0.72 mg in 0.4 mL, FIG. 2): 56 min
t50 (mins), time taken for 50% of the starting compound to degrade ([1]; pH 4, 0.94 mg in 1.8 mL (first time), FIG. 2): 29 min

SMILES: NCC(=O)Oc1ccc2c(c1)oc(=O)c1ccccc12 [Example 3, 6-Oxo-6H-benzo[c]chromen-3-yl 2-aminoacetate hydrochloride]
solubility [2, 6]: 4.94 mM
solubility [2, 7]: 1330 µg/mL
Degradation rate compared in words ([1]; at pH 4): degrades more slowly than Example 1
t50 (mins), time taken for 50% of the starting compound to degrade ([1]; pH 4, 0.31 mg in 1 mL, FIG. 3): 156 min

SMILES: NCC(=O)Oc1ccc2c(c1)oc(=O)c1cc(OC(=O)CN)ccc12 [Example 1, 8-[(2-Aminoacetyl)oxy]-6-oxo-6H-benzo[c]chromen-3-yl 2-aminoacetate dihydrochloride]
solubility [2, 4]: 5.64 mM
solubility [2, 5]: 1930 µg/mL
Solubility compared in words [2]: more soluble than the Glycine urolithin B compound (Example 3)
Degradation rate compared in words ([1]; at pH 4): degrades more slowly than Example 2
t50 (mins), time taken for 50% of the starting compound to degrade ([1]; pH 2, 0.16 mg in 1 mL, FIG. 5): 81 min
t50 (mins), time taken for 50% of the starting compound to degrade ([1]; pH 4, 0.77 mg in 1 mL, FIG. 1): 74 min
t50 (mins), time taken for 50% of the starting compound to degrade ([1]; pH 5, 0.16 mg in 1 mL, FIG. 5): 27 min

SMILES: CC(C)CC(N)C(=O)Oc1ccc2c(c1)oc(=O)c1cc(OC(=O)[C@H](N)CC(C)C)ccc12 (stereo in doubt) [Example 4, 8-{[(2R)-2-Amino-4-methylpentanoyl]oxy}-6-oxo-6H-benzo[c]chromen-3-yl (2S)-2-amino-4-methylpentanoate dihydrochloride]
solubility [2, 4]: 4.73 mM
solubility [2, 5]: 2150 µg/mL
Solubility compared in words [2]: particularly soluble compared to the parent compound
Degradation rate compared in words ([1]; at pH 4): degrades more slowly than Example 3
t50 (mins), time taken for 50% of the starting compound to degrade ([1]; pH 4, 0.4 mg in 1 mL, FIG. 4): 405 min
AUC of Urolithin A compared with oral administration of Urolithin A [3]: higher
Cmax of Urolithin A compared with oral administration of Urolithin A [3]: higher
Delivery of Urolithin A into the blood following oral administration, compared with oral Urolithin A [3]: at least as effectively

Other lines, results leading:

Degradation rate compared in words ([1]; at pH 2 and pH 5): degrades more slowly than Example 1
t50 (mins), time taken for 50% of the starting compound to degrade ([1]; pH 2, 0.2 mg in 1 mL, FIG. 6): 240 min
Increase in the rate of degradation when the pH of the solution is increased from 2 to 5 ([1]; pH 2 to pH 5): two-fold
t50 (mins), time taken for 50% of the starting compound to degrade ([1]; pH 5, 0.3 mg in 1 mL, FIG. 6): 125 min
SMILES: CC(C)C[C@H](N)C(=O)Oc1ccc2c(c1)oc(=O)c1ccccc12 [Example 5, 6-Oxo-6H-benzo[c]chromen-3-yl (2S)-2-amino-4-methylpentanoate hydrochloride]

solubility [2, 4]: 0.00057 mM
solubility [2, 5]: 0.13 µg/mL
SMILES: O=c1oc2cc(O)ccc2c2ccc(O)cc12 [Urolithin A, reference compound]

solubility [2, 6]: 0.00127 mM
solubility [2, 7]: 0.27 µg/mL
SMILES: O=c1oc2cc(O)ccc2c2ccccc12 [Urolithin B, reference compound]
